For 5 compounds, MIC results are on record in ChEMBL document CHEMBL1129105, “Synthesis and biological evaluation of N-(1-aziridino)-6-fluoro-quinolone-3-carboxylic acids” (1996).

≈ marks a conversion by molar mass, not a printed value.

The test system of one assay is Enterococcus faecalis. Kind of assay: In vitro antibacterial activity of compound was measured against gram positive Streptococcus faecalis. Type of assay: functional.
The subject of assay [1] is Mycobacterium tuberculosis. The experiment in a line: In vitro antibacterial activity of compound was measured against gram positive Mycobacterium tuberculosis H37Rv (human). In kind it is functional.
The test system of another assay is Klebsiella pneumoniae. Kind of assay: In vitro antibacterial activity of compound was measured against gram negative Klebsiella pneumoniae ATCC 10031. Type of assay: functional.
In another assay the test system is Shigella sonnei. Kind of assay: In vitro antibacterial activity of compound was measured against gram negative Shigella sonnei. Type of assay: functional.
The subject of assay [2] is Streptococcus pyogenes. The experiment in a line: In vitro antibacterial activity of compound was measured against gram positive Streptococcus pyogenes A 118. In kind it is functional.
The subject of assay [3] is Mycobacterium tuberculosis. Kind of assay: In vitro antibacterial activity of compound was measured against gram positive Mycobacterium tuberculosis Ravenel(bovin). Type of assay: functional.
For assay [4], the system named is Bordetella bronchiseptica. The experiment in a line: In vitro antibacterial activity of compound was measured against gram negative Bordetella bronchiseptica ATCC 4617. In kind it is functional.
The subject of assay [5] is Streptococcus pyogenes. Kind of assay: In vitro antibacterial activity of compound was measured against gram positive Streptococcus pyogenes A 115 ROBB. Type of assay: functional.
The subject of another assay is Bacillus subtilis. The experiment in a line: In vitro antibacterial activity of compound was measured against gram positive Bacillus subtilis ATCC 6633. In kind it is functional.
Assay [6] relates to Escherichia coli. The experiment in a line: In vitro antibacterial activity of compound was measured against gram negative Escherichia coli 6R. Type of assay: functional.
The test system of another assay is Salmonella typhimurium. The experiment in a line: In vitro antibacterial activity of compound was measured against gram negative Salmonella Typhimurium 51. Type of assay: functional, Salmonella enterica subsp. enterica serovar Typhimurium. The settings on record: Salmonella enterica.
Assay [7] deals with Escherichia coli. Kind of assay: In vitro antibacterial activity of compound was measured against gram negative Escherichia coli K12. In kind it is functional.
The test system of another assay is Proteus inconstans. The experiment in a line: In vitro antibacterial activity of compound was measured against gram negative Proteus inconstans NCTC 8055. In kind it is functional. The note with it: Providencia alcalifaciens.
Another assay has as its system Proteus vulgaris. Kind of assay: In vitro antibacterial activity of compound was measured against gram negative Proteus vulgaris XL. In kind it is functional.
The subject of another assay is Serratia marcescens. The experiment in a line: In vitro antibacterial activity of compound was measured against gram negative Serratia marcescens. In kind it is functional.
The test system of assay [8] is Staphylococcus aureus. Kind of assay: In vitro antibacterial activity of compound was measured against gram positive Staphylococcus aureus SMITH. Type of assay: functional.
In assay [9] the test system is Staphylococcus aureus. The experiment in a line: In vitro antibacterial activity of compound was measured against gram positive Staphylococcus aureus 1110 pen.rez. In kind it is functional.
A further assay concerns Alcaligenes faecalis. Kind of assay: In vitro antibacterial activity of compound was measured against gram negative Alcaligenes faecalis 140001. Type of assay: functional.
Another assay has as its system Bacteroides fragilis. The experiment in a line: In vitro antibacterial activity of compound was measured against gram negative Bacteroides fragilis ATCC 25285. In kind it is functional.
A further assay concerns Streptococcus pneumoniae. Kind of assay: In vitro antibacterial activity of compound was measured against gram positive Streptococcus pneumoniae. In kind it is functional.
The test system of assay [10] is Acinetobacter calcoaceticus subsp. anitratus. The experiment in a line: In vitro antibacterial activity of compound was measured against gram negative Acinetobacter anitratus 150001. In kind it is functional.
A further assay has as its system Pseudomonas aeruginosa. The experiment in a line: In vitro antibacterial activity of compound was measured against gram negative Pseudomonas pyocyanea NCTC 10490. Type of assay: functional, pseudomona pyocyanea.
For another assay, the system named is Clostridium perfringens. Kind of assay: In vitro antibacterial activity of compound was measured against gram positive Clostridium perfringens 70500. Type of assay: functional.

Broadly, the MIC is the smallest concentration in the dilution series that meets the test's criterion for growth inhibition.

On to `CN1CCN(c2c(F)cc3c(=O)c(C(=O)O)cn(N4CC4c4ccc(F)cc4)c3c2F)CC1` (stereo unspecified), for which the minimum inhibitory concentration (MIC) was greater than 100 µg/mL with Enterococcus faecalis; 100 µg/mL (≈ 218 µM) in [1]; 12.5 µg/mL (≈ 27.3 µM) in the assay on Klebsiella pneumoniae; 12.5 µg/mL (≈ 27.3 µM) with Shigella sonnei; greater than 100 µg/mL with Streptococcus pyogenes [2]; 50 µg/mL (≈ 109 µM) in [3]. Besides, the minimal inhibitory concentration (MIC) in [4] is greater than 100 µg/mL; against Streptococcus pyogenes [5] it was 100 µg/mL (≈ 218 µM); with Bacillus subtilis, greater than 100 µg/mL; in the assay on Escherichia coli [6], greater than 100 µg/mL; in the assay on Salmonella typhimurium, 25 µg/mL (≈ 54.5 µM); against Escherichia coli [7] it was 12.5 µg/mL (≈ 27.3 µM). Further, the MIC was 25 µg/mL (≈ 54.5 µM) in the assay on Proteus inconstans; 25 µg/mL (≈ 54.5 µM) in the assay with Proteus vulgaris; 25 µg/mL (≈ 54.5 µM) in the assay with Serratia marcescens; greater than 100 µg/mL against Staphylococcus aureus [8]; greater than 100 µg/mL against Staphylococcus aureus [9]; greater than 100 µg/mL against Alcaligenes faecalis. Further, the minimal inhibitory concentration (MIC) in the assay on Bacteroides fragilis is greater than 100 µg/mL; against Streptococcus pneumoniae, 50 µg/mL (≈ 109 µM); in [10], greater than 100 µg/mL; against Pseudomonas aeruginosa it was greater than 100 µg/mL; in the assay on Clostridium perfringens, 100 µg/mL (≈ 218 µM).
Turning to `CN1CCN(c2cc3c(cc2F)c(=O)c(C(=O)O)cn3N2CC2c2ccccc2)CC1` (stereo unspecified), the minimal inhibitory concentration (MIC) in the assay with Enterococcus faecalis came to 25 µg/mL (≈ 59.2 µM); in assay [1], 6.2 µg/mL (≈ 14.7 µM); with Klebsiella pneumoniae, 3.1 µg/mL (≈ 7.34 µM); against Shigella sonnei, 6.2 µg/mL (≈ 14.7 µM); with Streptococcus pyogenes [2], 10 µg/mL (≈ 23.7 µM); in assay [3] it was 3.1 µg/mL (≈ 7.34 µM). For the same compound, the MIC in assay [4] amounted to 6.2 µg/mL (≈ 14.7 µM); against Streptococcus pyogenes [5], 10 µg/mL (≈ 23.7 µM); against Bacillus subtilis, 6.2 µg/mL (≈ 14.7 µM); against Escherichia coli [6], 100 µg/mL (≈ 237 µM); with Salmonella typhimurium it was 50 µg/mL (≈ 118 µM); with Escherichia coli [7], 50 µg/mL (≈ 118 µM). Also, the MIC is 100 µg/mL (≈ 237 µM) in the assay with Proteus inconstans; 50 µg/mL (≈ 118 µM) with Proteus vulgaris; 100 µg/mL (≈ 237 µM) in the assay with Serratia marcescens; 12.5 µg/mL (≈ 29.6 µM) against Staphylococcus aureus [8]; 25 µg/mL (≈ 59.2 µM) against Staphylococcus aureus [9]; 100 µg/mL (≈ 237 µM) with Alcaligenes faecalis. In addition, the minimal inhibitory concentration (MIC) against Bacteroides fragilis was 6.2 µg/mL (≈ 14.7 µM); against Streptococcus pneumoniae it was 5 µg/mL (≈ 11.8 µM); in assay [10] it was 50 µg/mL (≈ 118 µM); against Pseudomonas aeruginosa, 100 µg/mL (≈ 237 µM); against Clostridium perfringens it was 6.2 µg/mL (≈ 14.7 µM).
As to `O=C(O)c1cn(C2CC2)c2cc(N3CCNCC3)c(F)cc2c1=O` [CIPROFLOXACIN], the MIC with Enterococcus faecalis stood at 1 µg/mL (≈ 3.02 µM); in assay [1], 0.2 µg/mL (≈ 0.604 µM); against Klebsiella pneumoniae, 0.008 µg/mL (≈ 0.0241 µM); in the assay with Shigella sonnei, 0.015 µg/mL (≈ 0.0453 µM); with Streptococcus pyogenes [2], 1 µg/mL (≈ 3.02 µM); in [3], 0.05 µg/mL (≈ 0.151 µM). In addition, the MIC in assay [4] was found to be 0.25 µg/mL (≈ 0.754 µM); with Streptococcus pyogenes [5], 1 µg/mL (≈ 3.02 µM); in the assay with Bacillus subtilis, 0.03 µg/mL (≈ 0.0905 µM); in the assay on Salmonella typhimurium it was 0.015 µg/mL (≈ 0.0453 µM); in the assay with Proteus inconstans, 0.03 µg/mL (≈ 0.0905 µM); with Proteus vulgaris, 0.008 µg/mL (≈ 0.0241 µM). The minimum inhibitory concentration (MIC) is 0.03 µg/mL (≈ 0.0905 µM) against Serratia marcescens; 0.12 µg/mL (≈ 0.362 µM) in the assay on Staphylococcus aureus [8]; 0.25 µg/mL (≈ 0.754 µM) against Staphylococcus aureus [9]; 1 µg/mL (≈ 3.02 µM) against Alcaligenes faecalis; 6.2 µg/mL (≈ 18.7 µM) in the assay with Bacteroides fragilis; 1 µg/mL (≈ 3.02 µM) against Streptococcus pneumoniae. For the same compound, the MIC in assay [10] was 0.25 µg/mL (≈ 0.754 µM).
As to `CN1CCN(c2cc3c(cc2F)c(=O)c(C(=O)O)cn3N2CC2c2cccc(C(F)(F)F)c2)CC1` (stereo unspecified), the minimal inhibitory concentration (MIC) with Enterococcus faecalis came to 25 µg/mL (≈ 51 µM); in assay [1] it was 12.5 µg/mL (≈ 25.5 µM); in the assay with Klebsiella pneumoniae, 12.5 µg/mL (≈ 25.5 µM); in the assay with Shigella sonnei, 25 µg/mL (≈ 51 µM); against Streptococcus pyogenes [2], 25 µg/mL (≈ 51 µM); in [3], 100 µg/mL (≈ 204 µM). For the same compound, the MIC worked out at 50 µg/mL (≈ 102 µM) in assay [4]; 50 µg/mL (≈ 102 µM) in the assay with Streptococcus pyogenes [5]; 10 µg/mL (≈ 20.4 µM) against Bacillus subtilis; 100 µg/mL (≈ 204 µM) in the assay with Escherichia coli [6]; 100 µg/mL (≈ 204 µM) against Salmonella typhimurium; 100 µg/mL (≈ 204 µM) against Escherichia coli [7]. Besides, the minimum inhibitory concentration (MIC) turned out to be 100 µg/mL (≈ 204 µM) against Proteus inconstans; 100 µg/mL (≈ 204 µM) against Proteus vulgaris; 100 µg/mL (≈ 204 µM) in the assay on Serratia marcescens; 25 µg/mL (≈ 51 µM) against Staphylococcus aureus [8]; 25 µg/mL (≈ 51 µM) in the assay with Staphylococcus aureus [9]; 100 µg/mL (≈ 204 µM) in the assay on Alcaligenes faecalis. For the same compound, the MIC in the assay on Bacteroides fragilis was 50 µg/mL (≈ 102 µM); with Streptococcus pneumoniae, 12.5 µg/mL (≈ 25.5 µM); in assay [10], 100 µg/mL (≈ 204 µM); with Pseudomonas aeruginosa, 100 µg/mL (≈ 204 µM); in the assay with Clostridium perfringens it was 12.5 µg/mL (≈ 25.5 µM).
Consider `CN1CCN(c2c(F)cc3c(=O)c(C(=O)O)cn(N4CC4c4ccccc4)c3c2F)CC1` (stereo unspecified), for which the minimal inhibitory concentration (MIC) against Enterococcus faecalis is greater than 100 µg/mL; in [1], 100 µg/mL (≈ 227 µM); against Klebsiella pneumoniae, 12.5 µg/mL (≈ 28.4 µM); in the assay on Shigella sonnei, 6.2 µg/mL (≈ 14.1 µM); against Streptococcus pyogenes [2], greater than 100 µg/mL; in [3], 50 µg/mL (≈ 114 µM). Also, the minimal inhibitory concentration (MIC) is 100 µg/mL (≈ 227 µM) in [4]; 50 µg/mL (≈ 114 µM) against Streptococcus pyogenes [5]; 100 µg/mL (≈ 227 µM) in the assay on Bacillus subtilis; greater than 100 µg/mL against Escherichia coli [6]; 25 µg/mL (≈ 56.8 µM) in the assay with Salmonella typhimurium; 25 µg/mL (≈ 56.8 µM) in the assay on Escherichia coli [7]. Moreover, the MIC is 50 µg/mL (≈ 114 µM) with Proteus inconstans; 25 µg/mL (≈ 56.8 µM) against Proteus vulgaris; 50 µg/mL (≈ 114 µM) against Serratia marcescens; 100 µg/mL (≈ 227 µM) against Staphylococcus aureus [8]; 100 µg/mL (≈ 227 µM) with Staphylococcus aureus [9]; greater than 100 µg/mL in the assay with Alcaligenes faecalis. Further, the MIC against Bacteroides fragilis is greater than 100 µg/mL; against Streptococcus pneumoniae it was 25 µg/mL (≈ 56.8 µM); in assay [10], greater than 100 µg/mL; with Pseudomonas aeruginosa, greater than 100 µg/mL; with Clostridium perfringens, 100 µg/mL (≈ 227 µM).
